Series [1] has as its target Phosphodiesterase aus B16 Melanomgewebe von Mäusen. Nature of the series: PDE inhibition (PDE assay), enzyme from B16 melanoma tissue, 3H-cAMP substrate. The format is biochemical. The note with it: PDE from mouse B16 melanoma tissue; 1 µmol/l 3H-cAMP as substrate; linear regression; read-out: PDE-Hemmung (IC50 in µmol/l) B16-Tumorzellen. An excerpt: (§1) Beispielsweise wurden die Verbindungen • A = 4,7-Dimorpholino-6-phenyl-2-piperazino-pteridin, • B = 4-Morpholino-7-(1-oxidothiomorpholino)-2-piperazino-6-phenyl-pteridin, • C = 7-Benzylamino-6-phenyl-2-piperazino-4-thiomorpholino- pteridin, • D = 7-Dimethylamino-6-phenyl-2-piperazino-4-pyrrolidino- pteridin und • E = 7-Benzylamino-4-(N-methyl-2'-hydroxyethylamino)-2-piperazino-pteridin auf ihre Hemmwirkung auf die Phosphodiesterase (PDE) von Tumorzellen und von Humanthrombozyten in vitro in Anlehnung an die von Pöch et al. beschriebenen Methode wie folgt untersucht (siehe Naunyn-Schmiedebergs Arch. Pharmak.
(§2) Die Phosphodiesterase wurde aus B16 Melanomgewebe von Mäusen durch Zentrifugation des Gewebehomogenates bei 5.000 x g (15 min. 4°C) gewonnen. Die Homogenisation der Gewebe erfolgte durch wiederholtes Frieren/Auftauen und Homogenisation nach Potter-Elvehjem bzw. durch Ultraschall. Der die PDE enthaltende Homogenat-Überstand wurde portioniert und bei -25°C tiefgefroren.
(§3) Die Bestimmung der PDE-Hemmung durch die Prüfsubstanzen erfolgte mit 1 µmol/l ^3H-cAMP als Substrat. Die PDE-Hemmung wurde durch Messung des Abbaus des eingesetzten Substrats ^3H-cAMP zu ^3H-AMP im Vergleich zur Kontrolle ohne Prüfsubstanz erfaßt.
(§4) Das gebildete ^3H-AMP wurde durch eine Zinksulfat-Bariumhydroxid-Fällung vom verbliebenen ^3H-CAMP abgetrennt.

Series [2] deals with Phosphodiesterase (PDE) von Humanthrombozyten. As to the kind of experiment: PDE inhibition (PDE assay), enzyme from human platelets, 3H-cAMP substrate. It is filed as biochemical. The following applies: 1 µmol/l 3H-cAMP as substrate, linear regression, read-out: PDE-Hemmung (IC50 in µmol/l) Thrombozyten.
Description: as §1, §2
Die Gewinnung der Phosphordiesterase aus Humanthrombozyten erfolgte in gleicher Weise.
as §3, §4

Another series concerns Mäusen. As to the kind of experiment: Orientating acute toxicity in mice, single oral dose. The format is in vivo. The note with it: observation time 14 days; for Orientierende aktute Toxizität (Tiere gestorben): single oral dose of 250 mg, animals dead of animals treated; for Orientierende aktute Toxizität: single oral dose. An excerpt: Die orientierende akute Toxizität der zu untersuchenden Substanzen wurde orientierend an Gruppen von je […] Mäusen nach oraler Gabe einer Einzeldosis bestimmt (Beobachtungszeit: 14 Tage) : […]

Molecules are shown by their SMILES.

As for `[O-][S+]1CCN(c2nc3nc(N4CCNCC4)nc(N4CCOCC4)c3nc2-c2ccccc2)CC1` [B, 4-Morpholino-7-(1-oxidothiomorpholino)-2-piperazino-6-phenyl-pteridin], the IC50 in series [1] was found to be 3.1 µmol/L; in series [2] it was 2.2 µmol/L.

On to `c1ccc(CNc2nc3nc(N4CCNCC4)nc(N4CCSCC4)c3nc2-c2ccccc2)cc1` [C, 7-Benzylamino-6-phenyl-2-piperazino-4-thiomorpholino-pteridin], for which, in the series on Mäusen, the “Orientierende aktute Toxizität (Tiere gestorben)” value is 0 von 5 and the “Orientierende aktute Toxizität” value is greater than 250 mg. In addition, the IC50 in series [1] is 0.096 µmol/L. Moreover, the IC50 in series [2] was 0.5 µmol/L.

With `c1ccc(-c2nc3c(N4CCOCC4)nc(N4CCNCC4)nc3nc2N2CCOCC2)cc1` [A, 4,7-Dimorpholino-6-phenyl-2-piperazino-pteridin], in the series on Mäusen, the “Orientierende aktute Toxizität (Tiere gestorben)” value came out at 0 von 5 and the “Orientierende aktute Toxizität” value is greater than 250 mg. Besides, the IC50 in series [1] turned out to be 4.3 µmol/L. In addition, the IC50 in series [2] turned out to be 0.54 µmol/L.

For `CN(C)c1nc2nc(N3CCNCC3)nc(N3CCCC3)c2nc1-c1ccccc1` [D, 7-Dimethylamino-6-phenyl-2-piperazino-4-pyrrolidino-pteridin], the “Orientierende aktute Toxizität (Tiere gestorben)” value in the series on Mäusen came out at 0 von 5. Also, the “Orientierende aktute Toxizität” value in the series on Mäusen is greater than 250 mg. In addition, the IC50 was 0.78 µmol/L in series [1] and 3.6 µmol/L in series [2].

As to `CN(CCO)c1nc(N2CCNCC2)nc2nc(NCc3ccccc3)cnc12` [E, 7-Benzylamino-4-(N-methyl-2'-hydroxyethylamino)-2-piperazino-pteridin], in the series on Mäusen, the “Orientierende aktute Toxizität (Tiere gestorben)” value was found to be 0 von 5 and the “Orientierende aktute Toxizität” value is listed as greater than 250 mg. Moreover, the IC50 in series [1] amounted to 8.3 µmol/L. Further, the IC50 in series [2] came out at 3.7 µmol/L.

The values above are taken from patent EP0185259A2, “Pteridines, process for their preparation, and their use as intermediates or as medicaments” (Dr. Karl Thomae GmbH, priority 1984, dated 1986).
